In one series the test system is MDR1. Nature of the series: In vitro brain model test: MDR1-MDCKII bidirectional permeability. Type of series: in vitro ADME. The following applies: dog; for Papp A→B at 2.5 h, 2 μM / Papp B→A at 2.5 h, 2 μM: MDCK-MDR1, pH 7.4, 2 μM, pH7.4; for efflux ratio at 2.5 h, 2 μM: MDCK-MDR1, pH 7.4, B to A / A to B, read-out: Efflux rate. Here is the method: The test product was diluted from dimethyl sulfoxide stock solution to a concentration of 2 μM (dimethyl sulfoxide <1%) with a transfer buffer (HBSS containing 10 mM Hepes, pH7.4); and was applied to apical or basolateral cavities of the cell monolayer. Penetration of the test compound from the direction A to the direction B or from the direction B to the direction A was determined in duplicate. Digoxin was detected at 10 μM in the direction of A-B, or detected in the direction of B-A, while Nadolol and Metoprolol were detected at 2 μM in the direction of A-B in duplicate. The plate was cultivated in a CO2 incubator at 37±1° C. for 2.5 h with 5% CO2 at a saturated humidity without shaking. Further, the efflux rate of each compound was also determined. According to the peak area ratio of analyte/IS, the test product and the control product were quantitatively analyzed by LC-MS/MS.
After the transfer test, the monolayer integrity of cells was determined by a lucifer yellow exclusion assay. Buffer was removed from apical and basolateral cavities, and then 75 μL of 100 μM lucifer yellow and 250 μL of transfer buffer were added into the apical and basolateral cavities, respectively. The culture dish was cultivated at 37° C., 5% CO2, and saturated humidity for 30 min without shaking. After incubation for 30 min, 20 μL of lucifer yellow sample was extracted from the top, and then 60 μL of the transfer buffer was added. Then, 80 μL of lucifer yellow sample was extracted basolaterally. Relative Fluorescence Units (RFU) of lucifer yellow were measured at 425/528 nm (excitation/emission) with an Envision plate reader.

Another series deals with T1, human NK-3 receptor (Homo sapiens, UniProt P29371).
T1 construct: expressed in transfected cells; host or cells: HEK293
T1 sequence (P29371 1-465): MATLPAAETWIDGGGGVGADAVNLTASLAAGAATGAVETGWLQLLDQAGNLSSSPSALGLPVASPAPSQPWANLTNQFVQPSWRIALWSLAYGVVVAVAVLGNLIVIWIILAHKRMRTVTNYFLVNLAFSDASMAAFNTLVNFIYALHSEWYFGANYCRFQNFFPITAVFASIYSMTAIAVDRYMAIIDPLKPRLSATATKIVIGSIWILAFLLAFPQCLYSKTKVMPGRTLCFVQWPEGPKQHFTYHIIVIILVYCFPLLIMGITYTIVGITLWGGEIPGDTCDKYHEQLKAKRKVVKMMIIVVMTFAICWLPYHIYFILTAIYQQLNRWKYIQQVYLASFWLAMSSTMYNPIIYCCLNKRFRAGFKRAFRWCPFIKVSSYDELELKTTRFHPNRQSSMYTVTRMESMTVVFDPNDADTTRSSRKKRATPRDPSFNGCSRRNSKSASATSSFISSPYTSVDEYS
Nature of the series: Antagonistic activity on human NK-3 receptor in human NK-3R/HEK293 stably transfected cells (Fluo-4, FLIPR, Neurokinin B as agonist). The series is classed as cell-based. The conditions noted are these: human NK-3R/HEK293 cells. Here is the method:
Test Example 1: Determination of Activity of Compounds of the Present Invention on Human NK-3 Receptor
This method is used to determine antagonistic effects of the compounds of the present invention on the activity of human NK-3 receptor proteins expressed in cell lines stably transfected with human NK-3R/HEK293.
2.1 The cell lines stably transfected with human NK-3R/HEK293 were inoculated in a 384-well cell culture plate at a inoculation density of 12,000 cells/well/25 μL, and cultured at 37° C. and 5% CO2 overnight;
2.2 20× Component A was frozen and thawed to room temperature, diluted 2× with Assay Buffer to working concentration, and kept at room temperature for later use;
2.3 The cell culture plate was equilibrated at room temperature for 10 min, the culture medium was removed, and 20 μL of Assay Buffer and 20 μL of 2× Component A […] were added, followed by centrifugation at 200 g at room temperature for 3-5 sec, and incubation at 37° C. for 2 h;
2.4 The compound was diluted 3 times with DMSO in 384 PP_DMSO plate, and then 240 nl/well of the compound was transferred into a working plate with Echo 550, centrifugated at 200 g at room temperature for 1 min; 40 μl of Assay Buffer was added into the working plate, centrifugated at 200 g at room temperature for 1 min, and then fully mixed in an oscillator at 2500 rpm for 20 min, and then centrifugated at 200 g at room temperature for 1 min for later use;
2.5 2.5 nM Neurokinin B TFA (6×) was prepared from Assay Buffer, 50 uL of which was transferred onto 3657 plate for later use;
2.6 The cell culture plate was taken out and left to stand at room temperature for 10 min, then […] the compound diluted in step 2.4 was added into corresponding wells, and the cell culture plate was left to stand at 25° C. for 30 min; and
2.7 10 μL of the compound diluted in step 2.5 was added into the corresponding experimental wells with FLIPR Tetra, and data was collected.
The antagonistic activity of the compounds of the present invention on the human NK-3 receptor was determined through the above experiments, to obtain inhibition curves of the compounds of the present invention and determine concentrations (IC50) of the corresponding compounds that inhibit 50% of the reference agonist.

Series [1] in a line: Pharmacokinetic test in rats (gavage 3 mg/kg, intravenous 1 mg/kg). Type of series: in vivo. The conditions noted are these: rat, plasma, SD rats; for bioavailability: gavage 3 mg/kg vs intravenous 1 mg/kg, read-out: Oral bioavailability F (%); for Cmax: read-out: Blood concentration Cmax; for AUC: read-out: Curve area AUC; for half-life: read-out: Half life T1/2 (converted). The method, then: Test Example 2: Pharmacokinetic Test of Compounds of the present invention in Rats
To study in vivo pharmacokinetic behaviors of the compounds of the present invention in rats, and evaluate pharmacokinetic characteristics thereof.
An appropriate amount of sample was weighed, and ultrasonically prepared into a 0.3 mg/mL suspension for the gavage administration group; and was prepared into a 0.2 mg/mL suspension for the intravenous administration group as per a formula of 5% DMSO+10% Solutol+85% (20% SBE-β-CD).
SD rats were fasted overnight, and then administered by gavage at a dosage of 3 mg/kg and by intravenous injection at a dosage of 1 mg/kg, respectively.
0.1 mL of blood was collected before administration and at 5 min, 15 min, 30 min, 1 h, 2 h, 4 h, 8 h, and 24 h after administration, transferred into heparinized tubes, and centrifuged at 3500 rpm for 10 min to separate the plasma, which was stored at −20° C. 4 h after administration, the animals were resumed for feeding/free access to water.
Contents of the test compounds in plasma of the rats after gavage administration were determined by LC/MS/MS.

Molecules are shown by their SMILES. Where two headings read alike, the source gives them in different places.

With `Cc1nsc(-c2nc(-c3ccnc(F)c3)c3n2CCN(C(=O)c2ccc(F)cc2)[C@@H]3C)n1` [Compound 044, (R)-(4-fluorophenyl)(1-(2-fluoropyridin-4-yl)-8-methyl-3-(3-methyl-1,2,4-thiadiazol-5-yl)-5,6-dihydroimidazo[1,5-a]pyrazin-7 (8H)-yl)methanone], in the series on MDR1, the Papp A→B at 2.5 h, 2 μM stood at 24 ×10⁻⁶ cm/s; the Papp B→A at 2.5 h, 2 μM stood at 15.9 ×10⁻⁶ cm/s; the efflux ratio at 2.5 h, 2 μM turned out to be 0.66. For the same compound, on human NK-3 receptor, the half-inhibitory concentration (IC50) stood at 17 nM.
On the same counts, the results for `Cc1nsc(-c2nc(-c3ccnc(F)c3F)c3n2CCN(C(=O)c2ccc(F)cc2)[C@@H]3C)n1` [Compound 074, (R)-(1-(2,3-difluoropyridin-4-yl)-8-methyl-3-(3-methyl-1,2,4-thiadiazol-5-yl)-5,6-dihydroimidazo[1,5-a]pyrazin-7 (8H)-yl)(4-fluorophenyl)methanone] are 22.9 ×10⁻⁶ cm/s, 16.1 ×10⁻⁶ cm/s, 0.7 and 13.6 nM.
Take `Cc1nsc(-c2nc(N3C[C@H](F)CC3=O)c3n2CCN(C(=O)c2ccc(F)cc2)[C@@H]3C)n1` [Compound 107, (R)-4-fluoro-1-[(R)-7-(4-fluorobenzoyl)-8-methyl-3-(3-methyl-1,2,4-thiadiazol-5-yl)-5,6,7,8-tetrahydroimidazo[1,5-a]pyrazin-1-yl]pyrrolidin-2-one]: the bioavailability in series [1] (po) worked out at 65.6%. In series [1] (po, gavage 3 mg/kg), the Cmax turned out to be 348 ± 104 ng/mL, the AUC was 1860 ± 303 ng·h/mL and the half-life is 4.69 ± 1.18 h. In series [1] (intravenous injection 1 mg/kg), the AUC came out at 842 ± 66.3 ng·h/mL and the half-life was 0.94 ± 0.19 h. At human NK-3 receptor, this compound had an IC50 of 15.4 nM.
Take `Cc1nsc(-c2nc(-c3cc(F)ncc3O)c3n2CCN(C(=O)c2ccc(F)cc2)[C@@H]3C)n1` [Compound 165, (R)-(1-(2-fluoro-5-hydroxypyridin-4-yl)-8-methyl-3-(3-methyl-1,2,4-thiadiazol-5-yl)-5,6-dihydroimidazo[1,5-a]pyrazin-7 (8H)-yl)(4-fluorophenyl)methanone]: in the series on MDR1, the apparent permeability from apical to basolateral (Papp A→B) at 2.5 h, 2 μM came to 19.2 ×10⁻⁶ cm/s; the apparent permeability from basolateral to apical (Papp B→A) at 2.5 h, 2 μM was 12.2 ×10⁻⁶ cm/s; the efflux ratio at 2.5 h, 2 μM is 0.64.
In the case of `CC(=O)Nc1nc(-c2nc(C)ns2)n2c1[C@@H](C)N(C(=O)c1ccc(F)cc1)CC2` [Compound 034, (R)—N-(7-(4-fluorobenzoyl)-8-methyl-3-(3-methyl-1,2,4-thiadiazol-5-yl)-5,6,7,8-tetrahydroimidazo[1,5-a]pyrazin-1-yl)acetamide], in series [1] (po), the bioavailability was found to be 83.1%. Also, in series [1] (po, gavage 3 mg/kg), the Cmax was 1290 ± 133 ng/mL, the AUC amounted to 5580 ± 241 ng·h/mL and the half-life is 3.92 ± 0.662 h. In series [1] (intravenous injection 1 mg/kg), the AUC amounted to 2240 ± 418 ng·h/mL and the half-life was 2.95 ± 0.855 h. On human NK-3 receptor, this compound returned an IC50 of 30.4 nM.
Turning to `Cc1nsc(-c2nc(N3CCCC3=O)c3n2CCN(C(=O)c2ccc(F)cc2)[C@@H]3C)n1` [Compound 068, (R)-1-(7-(4-fluorobenzoyl)-8-methyl-3-(3-methyl-1,2,4-thiadiazol-5-yl)-5,6,7,8-tetrahydroimidazo[1,5-a]pyrazin-1-yl)pyrrolidin-2-one], the bioavailability in series [1] (po) stood at 73.4%. Moreover, in series [1] (po, gavage 3 mg/kg), the Cmax was 1030 ± 101 ng/mL, the AUC stood at 2890 ± 794 ng·h/mL and the half-life was 3.57 ± 1.39 h. In series [1] (intravenous injection 1 mg/kg), the AUC is 1280 ± 264 ng·h/mL and the half-life was 1.02 ± 0.16 h. Besides, the concentration for half-maximal inhibition (IC50) at human NK-3 receptor is 8.36 nM.
In the case of `Cc1nsc(-c2nc(N3Cc4ccccc4C3=O)c3n2CCN(C(=O)c2ccc(F)cc2)[C@@H]3C)n1` [Compound 085, (R)-2-(7-(4-fluorobenzoyl)-8-methyl-3-(3-methyl-1,2,4-thiadiazol-5-yl)-5,6,7,8-tetrahydroimidazo[1,5-a]pyrazin-1-yl)isoindolin-1-one], in the series with MDR1, the Papp A→B at 2.5 h, 2 μM is 28 ×10⁻⁶ cm/s; the Papp B→A at 2.5 h, 2 μM is 18.7 ×10⁻⁶ cm/s; the efflux ratio at 2.5 h, 2 μM turned out to be 0.67. At human NK-3 receptor, this compound displayed an IC50 of 12.8 nM.

The record behind these values is patent US20240228501A1, “IMIDAZOLE-CONTAINING CONDENSED RING DERIVATIVE, PREPARATION METHOD THEREFOR, AND APPLICATION THEREOF IN MEDICINE” (CHANGCHUN GENESCIENCE PHARMACEUTICAL CO., LTD., priority 2021, published 2024).
